From patent EP0050212A1, “5-Substituted-9-cyane-methylene-dithieno(3,4-b:4',3'-e) azepines, process for their preparation and pharmaceutical compositions containing them” (BASF Aktiengesellschaft, priority 1980, dated 1982)

Tests used:
NMRI-Mäusen = assay: Sedative effect: inhibition of novelty-induced orientation hypermotility (photoelectric measurement); assay type: in vivo; details: for ED50: Mus musculus, 0.5 h, oral, female NMRI mice, measured 30 min after dosing for 30 min, dose giving 50 % decrease of orientation hypermotility, read-out: Sedation ED50; for Sedation R.W.: relative Wirksamkeit = ED50 Vergleichssubstanz / ED50 Beispiel, Clozapin = 1,0
Description: 4 bis 8 Gruppen von Jeweils 3 weiblichen NMRI-Mäusen erhalten die Substanzen oral appliziert. Die photoelektrische Bestimmung der durch eine neue Umgebung induzierten Orientierungshypermotilität erfolgt 30 min nach der Applikation der Substanzen für eine Dauer von 30 min. " Als ED50 wird die Dosis bestimmt, welche im Ver- gleich zu Placebo-behandelten Kontrolltieren eine Abnahme der Orientierungshypermotilität um 50 % bewirkt.

Kaninchens = assay: Muscle-relaxant effect: tonic stretch reflex of the gastrocnemius; assay type: in vivo, Kaninchen; details: for ED50: Oryctolagus cuniculus, rabbit, intravenous, tonic stretch reflex impulse counts relative to pre-dose values, read-out: Muskelrelaxation ED50; for Muskelrelaxation R.W.: relative Wirksamkeit = ED50 Vergleichssubstanz / ED50 Beispiel, Clozapin = 1,0
Source text: 2. […] auf der Quantifizierung des tonischen Dehnungsreflexes am Gastocnemius des […] et al., Arch. Pharmacol. exp. Path. 266, 462, 1970). Das Kaninchen wird in einer speziellen Apparatur fixiert, die es erlaubt, die Pfote im Sprunggelenk in […] und reproduzierbarer Weise zu beugen. Durch die Beugung wird in der Wadenmuskulatur ein tonischer Dehnungsreflex ausgelöst. Die […] des Muskels während der Kontraktion wird registriert und die Einzelimpulse gezählt. Die Dehnung (Dauer 5 s) wird in Minutenabständen wiederholt. Nach Erreichen einer konstanten Impulszahl (Kontrollwert) wird die Testsubstanz intravenös appliziert. Die Impulszahlen nach Applikation werden auf die Vorwerte bezogen.

Ratten [1] = assay: Antimethamphetamine effect: suppression of methamphetamine-induced sniffing; assay type: in vivo; details: for ED50: ip, 0.5 h, rat, intraperitoneal 30 min before Methamphetamin . HCl 2,5 mg/kg i.v., absence of sniffing within 5 min, probit analysis, read-out: Methamphetaminantagonismus ED50; for Methamphetaminantagonismus R.W.: relative Wirksamkeit = ED50 Vergleichssubstanz / ED50 Beispiel, Clozapin = 1,0
Description: Antimethamphetamin-Wirkung
Methamphetamin . […] Die Prüfsubstanzen werden 30 min vor Methamphetamin intraperitoneal verabfolgt. Kriterium für einen Substanzeffekt ist das Ausbleiben der Schnüffelbewegungen innerhalb eines 5-minütigen Beobachtungszeitraumes nach Meth- amphetamin-Injektion. Als mittlere Hemmdosis (ED50) ' wird mittels Probitanalyse die Dosis ermittelt, die das Symptom bei der Hälfte der Tiere verhindert.

Ratten [2] = assay: Central anticholinergic effect: suppression of pilocarpine-induced scratching; assay type: in vivo; details: for ED50: ip, 0.5 h, rat, intraperitoneal 30 min before Pilocarpin . HCl 50 mg/kg i.v., absence of scratching within 2 min, probit analysis, read-out: Zentral-anticholinerge Wirkung ED50; for Zentral-anticholinerge Wirkung R.W.: relative Wirksamkeit = ED50 Vergleichssubstanz / ED50 Beispiel, Clozapin = 1,0
Description: 4. Zentral-anticholinerge Wirkung
Zur Prüfung auf zentrale anticholinerge Wirkung wird durch Pilocarpin eine cholinerge Stimulierung ausgelöst. Ratten zeigen nach rascher intravenöser Injektion von Pilocarpin . HC1 (50 mg/kg) alternierende Kratzbewegungen der Hinterpfoten; weitere zentral ausgelöste Symptome sind Kieferbewegungen und Tremor. ALs Zeichen peripherer übererregung können Speichelfluß und Chromodakryorrhoe beobachtet werden (Kreiskott, Arch. exp. Path. Pharmak. 247, 317, 1964). Die Prüfsubstanzen werden 30 min vor Pilocarpin intraperitoneal verabfolgt. Kriterium für einen Substanzeffekt ist das Ausbleiben des Kratzens innerhalb 2 min nach Pilocarpin-Injektion. Für dieses Symptom wird als mittlere Hemmdosis (ED50) mittels Probitanalyse nach Finney diejenige Dosis der Prüfsubstanz ermittelt, welche die Kratzabläufe bei der Hälfte der Tiere unterdrückt.

| SMILES | ED50 (NMRI-Mäusen) [mg/kg] | Sedation R.W. (NMRI-Mäusen) | ED50 (Kaninchens) [mg/kg] | Muskelrelaxation R.W. (Kaninchens) | ED50 (Ratten [1]) [mg/kg] | Methamphetaminantagonismus R.W. (Ratten [1]) | ED50 (Ratten [2]) [mg/kg] | Zentral-anticholinerge Wirkung R.W. (Ratten [2]) |
| --- | --- | --- | --- | --- | --- | --- | --- | --- |
| CN1CCN(C2=Nc3c(csc3Cl)C(=CC#N)c3cscc32)CC1 (mixture of isomers) [Beispiel 2, cis, trans-3-Chlor-9-cyanmethyl en-5-(4-methylpiperazin-1--yl)-dithieno[3.4-b:4'.3'-e]azepin] | 9.6 | 0,49 | 0.08 | 0,56 | – | – | – | – |
| CCN1CCN(C2=Nc3cscc3C(=CC#N)c3cscc32)CC1 (mixture of isomers) [Beispiel 6, cis, trans-9-Cyanmethylen-5-(4-äthyl-piperazin-1-yl)-di-thieno[3.4-b:4'.3'-elazepin] | 10.6 | 0,44 | 0.22 | 0,21 | 42 | 0,88 | – | – |
| CN1CCN(C2=Nc3cscc3/C(=C/C#N)c3cscc32)CC1 [1b cis] | 5 | 0,94 | 0.22 | 0,21 | 5.5 | 6,72 | 0.6 | 5,2 |
| CN1CCN(C2=Nc3cscc3/C(=C\C#N)c3cscc32)CC1 [1b trans] | > 21.5 | <0,22 | > 1 | <0,046 | 77 | 0,48 | 13 | 0,24 |
| CN1CCN(C2=Nc3cscc3C(=CC#N)c3cscc32)CC1 [Beispiel 1a, 9-Cyanmethylen-5-(4-methyl-piperazin-1-yl)-dithieno-[3.4-b:4'.3'-e]azepin] | 7.4 | 0,64 | 0.14 | 0,33 | 5.1 | 7,25 | 2.8 | 1,1 |
| CN1CCN(C2=Nc3cc(Cl)ccc3Nc3ccccc32)CC1 [Clozapin, reference compound] | 4.7 | 1,0 | – | 1,0 | 37 | 1,0 | 3.1 | 1,0 |
| CN1CCN(C2=Nc3ccccc3Cc3ccccc32)CC1 [Perlapin, reference compound] | 2.1 | 2,24 | 0.11 | 0,42 | 31 | 1,2 | 14 | 0,22 |
